Where two headings read alike, the source gives them in different places. Starred links: 1 amine or outer side, 2 acyl side, 3 side chain; linkers in the order of their positions; H or OH if unused. Non-standard residues stand in square brackets, D forms with d. Residues, ends and D or L forms follow the SMILES beside them. X1 = O=C([C@@H](N[*:1])c1ccc(N=Nc2ccccc2)cc1)[*:2]

The values that follow come from publication PMC9936496, “Azobenzene-Based Amino Acids for the Photocontrol of Coiled-Coil Peptides” (Bioconjugate Chemistry, 2023).

One series deals with E3GY. Kind of series: CD thermal unfolding curves fitted to a dimeric coiled-coil binding model. The settings on record: coiled coil with E3GY; for Kf (folding constant) / Kd: binding model at 20 °C; for Kd: read-out: Ku (unfolding constant). As to the method:
CD melting curves measured at different concentrations were fitted to a coiled-coil binding model (Figures S2 and S3).[39]
CD spectra were recorded on a Jasco J-815 CD spectrometer fitted with a Peltier temperature controller. Spectra were recorded in a 2 mm quartz cuvette at 20 °C using either PBS or low-salt buffer (2 mM NaCl, 10 mM phosphate) at pH 7.4. Spectra were recorded between 190 and 280 nm with 1 nm intervals at a scan rate of 100 nm/min with five subsequent spectra averaged to minimize noise. […] Thermal melting curves were generated by recording θ222nm between 5 and 90 °C at a speed of 1 °C/min. If irradiated samples were used, samples were reilluminated every 30 min. Melting curves were measured at four different concentrations and fitted using the Fitdis software package.[39]

Series [1] is classed as physicochemical. The settings on record: K3-APgly in PBS versus 10 in MeCN. Here is the method: For the potential application of K3-APgly in an active system, for example, for membrane fusion, the stability of the photoswitch to repeated light exposures (photocycling) is required. […] Finally, the peptide was irradiated with the 340 nm PSS and allowed to thermally relax, showing 65% recovery in 69 h.
Figure 4 Photocycling of K3-APgly between the dark-adapted, 340 and 435 nm PSS (left), thermal relaxation of the peptide after […] (middle) and distribution of the absorbance in the different states during cycling (right).

Series [2] can be described thus: Thermal relaxation of Fmoc-APgly from cis to trans followed by HPLC. Format: physicochemical. The settings on record: after irradiation with 340 nm light, in MeCN at 20 °C. From the text: (§1) Figure 3 HPLC analysis of the photoswitching behavior of Fmoc-APgly, and the effect of azobenzene isomerization in peptide K3-APgly. (A) Chromatography traces of Fmoc-APgly in the dark state and after irradiation with different wavelengths of light, complete traces can be found in Figure S5. (B) Thermal relaxation of Fmoc-APgly from cis to trans as followed by HPLC. (C) Percentage of the trans and cis isomers in solution at the different PSSs; error bars indicate difference in deviation between repeat samples. (D) UV–vis spectra showing the spectra of K3-APgly in the dark and after irradiation with 340 or 435 nm light. (E) CD spectra showing the effect of photoisomerization on the structure of K3-Apgly by itself and as a coiled-coil with E3GY. […] Illumination and relaxation studies of the amino acid were performed in MeCN at 20 °C. Peptide spectra were recorded at 20 °C in PBS with [peptide] = 50 μM. […]
(§2) Analytical HPLC was performed using a Shimadzu Prominence-i LC-2030C 3D system fitted with a 4.6 × 50 mm Phenomenex Kinetex Evo C18 column. The isomeric ratio of 10 was quantified using a linear gradient of 10–90% MeCN in water containing 0.1% TFA as buffer. For each measurement, 2 μL of a 200 mM solution of 10 was injected, and measurements were repeated three times for accuracy.

A short description of series [3]: HPLC quantification of trans/cis isomer ratio at photostationary states. Format: physicochemical. The settings on record: measurements repeated three times. As to the method:
As azobenzene photoswitches based on phenylglycine are not known in the literature, the photoswitching behavior of Fmoc-APgly (10) was analyzed first in order to assess its suitability as a photoswitch (Figure 3A–C). […] The largest ratio of […]-to-cis isomers via photoisomerization was achieved through irradiation with 385 nm light (83.2 ± 0.2% […]), with higher wavelengths showing very similar distributions.
as §1, §2

On the set-up of series [4]: method as in 2 sources, ref 29 = [29]; PMID 16287231; doi:10.1021/bc049724g; Nakayama K.; Endo M.; Majima T. A Hydrophilic Azobenzene-Bearing Amino Acid for Photochemical Control of a Restriction Enzyme BamHI . Bioconjugate Chem. 2005 , 16 , 1360 – 1366 . 10.1021/bc049724g . ||| ref 33 = [33]; PMID 31495713; doi:10.1016/j.chembiol.2019.08.006; Kneuttinger A. C.; Straub K.; Bittner P.; Simeth N. A.; Bruckmann A.; Busch F.; Rajendran C.; Hupfeld E.; Wysocki V. H.; Horinek D.; et al. Light Regulation of Enzyme Allostery through Photo. The settings on record: cited from earlier work.

For series [5] the following is noted: cited from earlier work.
Setting [6] is: 340 nm irradiated state (predominantly cis).
Setting [7] is: dark state (predominantly trans).

With `CC[C@H](C)[C@H](NC(=O)[C@H](CCCCN)NC(C)=O)C(=O)N[C@@H](C)C(=O)N[C@@H](C)C(=O)N[C@@H](CC(C)C)C(=O)N[C@@H](CCCCN)C(=O)N[C@@H](CCC(=O)O)C(=O)N[C@@H](CCCCN)C(=O)N[C@H](C(=O)N[C@@H](C)C(=O)N[C@@H](C)C(=O)N[C@@H](CC(C)C)C(=O)N[C@@H](CCCCN)C(=O)N[C@@H](CCC(=O)O)C(=O)N[C@@H](CCCCN)C(=O)N[C@H](C(=O)N[C@@H](C)C(=O)N[C@@H](C)C(=O)N[C@@H](CC(C)C)C(=O)N[C@@H](CCCCN)C(=O)N[C@@H](CCC(=O)O)C(N)=O)[C@@H](C)CC)c1ccc(N=Nc2ccccc2)cc1` [K3-APgly] (Ac-KIAALKEK[X1]AALKEKIAALKE-NH2), the “Kf (folding constant)” value is 2.97 × 10^5 M^–1 with E3GY (setting [6]) and 1.38 × 10^6 M^–1 with E3GY (setting [7]). Moreover, the Kd at E3GY (setting [6]) was 3370 nM; at E3GY (setting [7]) it was 720 nM. Moreover, the “dark/340 nm PSS (fold difference in folding constant / binding affinity)” value with E3GY (ratio dark state to 340 nm PSS, 20 °C) is 4.65. Further, the “thermal relaxation, times slower than that observed for 10 in MeCN” value in series [1] was 1.6.

In the case of `O=C(N[C@H](C(=O)O)c1ccc(N=Nc2ccccc2)cc1)OCC1c2ccccc2-c2ccccc21` [compound 10, N-Fmoc-4-(phenylazo)-L-phenylglycine], the entries for the “half-life of thermal relaxation cis to trans” value in series [2] and in series [2] (same value in hours) were 28.17 h and “≈ 28 h”, respectively. Further, the trans isomer came to 94.2 ± 0.2% in series [3] (dissolved in MeCN, kept under dark conditions) and 83.2 ± 0.2% in series [3] (irradiation with 385 nm light, MeCN, 20 °C). Besides, the cis isomer in series [3] (irradiated with 340 nm light, MeCN, 20 °C) was 91.3 ± 0.6%.

In the case of `N[C@@H](Cc1ccc(N=Nc2ccc(C(=O)O)cc2)cc1)C(=O)O` [APhe2], in series [4] (using a mercury lamp), the “PSS, cis isomer” value is 81%. In addition, in series [5], the “reported half-life of thermal relaxation” value was 35 h.

Regarding `N[C@@H](Cc1ccc(N=Nc2ccccc2)cc1)C(=O)O` [APhe1, Phenylazo-phenylalanine], the “PSS, cis isomer” value in series [4] (using a LED light source) is given as 89%; in series [4] (using a mercury lamp), 79%. Moreover, in series [5], the “reported half-life of thermal relaxation” value is 26.67 h.
